Assay results taken from patent US20260373176A1, “Compounds Targeting KRAS G12D Mutations and Their Uses” (InnoPharmaScreen Inc., priority 2023, published 2026).
Entries after “also recorded” stand apart in the source; their conditions may differ.

Columns and labels:
CRBN-KRAS G12D = target: T1, CRBN-KRAS G12D (Homo sapiens, UniProt P01116+Q96SW2, G12D); assay: SPR ternary complex formation assay of CRBN-KRAS G12D-MG (1:1 Langmuir binding model)
T1 construct: His-tag (for the complex); purchased Abcam (KRAS G12D); R&D systems (CUL4A/RBX1/DDB1/CRBN complex) ab268712; E3-650
Experimental: (§1) CaCo-2 (ATTC), H1975 (CRL-5908) and LS-180 (CCL-187) cells were obtained from ATCC, expanded immediately, and frozen down. Vials were thawed and used within 20 passages. SNU-407, SNU-1033 and SK-LU-1 cells were obtained from Korean Cell Line Bank, expanded immediately, and frozen down. Vials were thawed and used within 20 passages. Caco-2 cells were cultured in MEM (Welgene, LM007-07) supplemented with 10% FBS GenDEPOT; cat. no. F0900-050) and 1% Antibiotic Antimycotic solution (Welgene; cat. No. LS203-01). H1975, SNU-407, SNU-1033 cells were cultured in RPMI (Welgene, LM011-03) supplemented with 10% FBS GenDEPOT; cat. no. F0900-050) and 1% Antibiotic Antimycotic solution (Welgene; cat. No. LS203-01). SK-LU-1 and LS-180 cells were cultured in DMEM (Welgene, LM001-05) supplemented with 10% FBS GenDEPOT; cat. no. F0900-050) and 1% Antibiotic Antimycotic solution (Welgene; cat. No. LS203-01). PBS (Welgene; cat. no. LB004-02) was used to wash cells and 0.25% Trypsin-EDTA (Welgene; cat. no. LS015-01) was used to detach cells for passaging. KRAS Mouse Monoclonal Antibody was purchased from Origene (cat. no. TA801672), anti-3-actin was purchased from AB Frontier (cat. no. LF-MA20055). […]
The injection was performed at a flow rate and for a contact time according to the Korea University Stem cell Lab guidelines. […] The sensorgrams were recorded using the embedded software imSPR-mini v 1.1.0. […]

KRAS WT = target: T2, KRAS WT (Homo sapiens, UniProt P01116+Q96SW2); assay: Western blot analysis of KRAS WT degradation in Caco-2 cells; type: cell-based
T2 construct: molecular glue degradation via endogenous CRBN, western blot
Experimental: as §1, with “LS203-01).” for “LS203-01). PBS (Welgene; cat. no. LB004-02) was used to wash cells and 0.25% Trypsin-EDTA (Welgene; cat. no. LS015-01) was used to detach cells for passaging. KRAS Mouse Monoclonal Antibody was purchased from Origene (cat. no. TA801672), anti-3-actin was purchased from AB Frontier (cat. no. LF-MA20055).”
2.0×10^5 cells were seeded into 6-well plates (SPL; cat. no. 30006). […] Protein concentration of the supernatant was measured using a BCA reagent. […] Detection of bound antibodies was carried out using ECL reagents (KwikQuant #R1004) and bands were detected by ATTO Luminograph III Lite. The intensity of the KRAS band was quantified using ImageJ software and normalized to the intensity of GAPDH band.

[1] = system: AsPC-1 pancreatic cancer cells; assay: In vivo tumor growth, AsPC-1 xenograft mice; design: species or system mouse (BALB/c nu/nu nude mice)
Experimental: We have conducted the in vivo tumor growth assay using AsPC-1 pancreatic cancer cell-implanted xenograft animals by requesting Eins solution (Gwanggyo, Korea).
Experimental procedures that involved animals and their care were conducted in compliance with the Guide for the Care and Use of Laboratory Animals15 and ARRIVE guidelines. Animal experiments were approved by Animal Care and Use Committee of Woojung center for phenogenomics (Hwasung, Korea) and conducted at WoojungBio Inc. (Hwasung, Korea) in accordance with the guidelines. BA LB/C (nu/nu) nude mice of both genders aged 6 weeks and weighing 16-22 g were purchased from Nara biotech Co, Ltd. (Seoul, Korea). The mice were housed in a pathogen-free environment at a temperature of 25 °C and relative air humidity between 45 and 50%. All surgeries were performed in a sterile environment. To establish subcutaneous […] tumors, 1×10^6 AsPC-1 cells/100 μL were subcutaneously injected into the left groin region of BALB/nu nu male mice (7 weeks old; Nara Biotech Inc., Seoul, Korea). Immediately before treatment, IPS-06061 was dissolved in DMSO and then diluted tenfold in normal saline. Tumor-baring mice in vehicle control, IPS-06061 (low), and IPS-06061 (high) groups were injected intravenously with vehicle (1:10 DMSO to saline, v/v), 30 mg/kg IPS-06061 solution, or 80 mg/kg IPS-06061 solution, respectively, twice a week for 28 days (n=10 mice per major group) (FIG. 11). Tumor growth rate was recorded on day 7, 14, 21, and 28 by measuring the major and minor axes with a digital caliper. Measurements were transformed into tumor volumes using the formula tumor volume (mm^3)=major axis×minor axis^2×0.5. Tumor, liver, and kidneys were collected from major groups on day 28 within 3 h of the last injection and weighed. The tumors were subsequently frozen in liquid nitrogen and stored at −80 °C until homogenization for western blotting.
To confirm the anti-tumor effect of IPS-06061, we employed a xenograft mouse model implanting AsPC-1 pancreatic cancer cells. After the tumor volume had grown to approximately 100 mm^3, IPS-06061 was administered […] twice a week for 28 days. […] Toxicity was assessed by measuring body weight, food intake, complete blood cell count, and biochemical blood chemistry.

KRAS G12D [2] = assay: KRAS G12D degradation in AsPC-1 xenograft mice; type: in vivo, mouse (BALB/c nu/nu nude mice); conditions: 80 mpk BiW, oral; at 28 days after treatment
[3] = Toxicity in AsPC-1 xenograft mice (body weight, food intake, blood count, blood chemistry); type: in vivo, mouse (BALB/c nu/nu nude mice)
Experimental: Experimental procedures that involved animals and their care were conducted in compliance with the Guide for the Care and Use of Laboratory Animals15 and ARRIVE guidelines. Animal experiments were approved by Animal Care and Use Committee of Woojung center for phenogenomics (Hwasung, Korea) and conducted at WoojungBio Inc. (Hwasung, Korea) in accordance with the guidelines. BA LB/C (nu/nu) nude mice of both genders aged 6 weeks and weighing 16-22 g were purchased from Nara biotech Co, Ltd. (Seoul, Korea). The mice were housed in a pathogen-free environment at a temperature of 25 °C and relative air humidity between 45 and 50%. All surgeries were performed in a sterile environment. To establish subcutaneous […] tumors, 1×10^6 AsPC-1 cells/100 μL were subcutaneously injected into the left groin region of BALB/nu nu male mice (7 weeks old; Nara Biotech Inc., Seoul, Korea). Immediately before treatment, IPS-06061 was dissolved in DMSO and then diluted tenfold in normal saline. […] Tumor growth rate was recorded on day 7, 14, 21, and 28 by measuring the major and minor axes with a digital caliper. […]
To confirm the anti-tumor effect of IPS-06061, we employed a xenograft mouse model implanting AsPC-1 pancreatic cancer cells. […] Toxicity was assessed by measuring body weight, food intake, complete blood cell count, and biochemical blood chemistry.

KRAS G12D [4] = target: T3, KRAS G12D (Homo sapiens, UniProt P01116+Q96SW2, G12D); assay: Western blot analysis of KRAS G12D degradation in cells; type: cell-based; design: degradation by molecular glue via endogenous CRBN, western blot
Experimental: 2.0×10^5 cells were seeded into 6-well plates (SPL; cat. no. 30006). The next day, media was removed, and cells were treated with 0, 1, 5, 10, 50, 100 μM KRAS-MG in serum free media. For 24 h, 48 h, and 72 h. Cells were lysed using a RIPA buffer and clarified at 21,000×g for 15 min at 4 °C. Protein concentration of the supernatant was measured using a BCA reagent. (Thermofisher; cat. no. 23225) incubated at 37 °C for 30 mins. For each sample, equal amounts of protein were denatured and fractionated by Novex Wedge Well 4-20% Tris-Glycine Mini Gels (Invitrogen cat. no. XP04205BOX), and then transferred onto a Immobilon-PVDF Membrane membranes (Merck, cat. no. IPVH00010) at 80 V for 1 h at 4 °C. Membranes were blocked by placing them in a 5% BSA in Tris-buffered saline with Tween-20 (TBST; 20 mM Tris, 150 mM NaCl, 0.1% Tween-20) for 1 h. Membranes were then incubated overnight at 4 °C with primary antibodies against KRAS (1:1000, invitrogen: #703345), GAPDH (1:2000, Cell signaling #2118). After three washes with TBST, membranes were incubated with the appropriate HRP-conjugated secondary antibodies (1:1000, KwikQuant #R1006) for 1 hour RT. After three washing. Detection of bound antibodies was carried out using ECL reagents (KwikQuant #R1004) and bands were detected by ATTO Luminograph III Lite. The intensity of the KRAS band was quantified using ImageJ software and normalized to the intensity of GAPDH band.

KRAS G12D [5] = target: T3, KRAS G12D; assay: IPS-Chip PPIExplorer solid-phase cell-free ubiquitination of KRAS G12D using CRBN; type: biochemical; design: His-tagged CUL4A/RBX1/DDB1/CRBN E3; UBE1 (E1) and UbcH5a/UBE2D1 (E2) as helper enzymes; conditions: in the presence of CRBN, E1, E2, ubiquitin and ATP
Experimental: as §1, with “passaging.” for “passaging. KRAS Mouse Monoclonal Antibody was purchased from Origene (cat. no. TA801672), anti-3-actin was purchased from AB Frontier (cat. no. LF-MA20055).”
The 0.2 mg/ml 6× His tag monoclonal antibody was diluted in 30% glycerol in 1×PBS, pH 7.4, was spotted onto the IPS-Chip for 16 h at 4 °C. […] To detect polyubiquitination signals, the chip was scanned using a GenePix Pro 6.0 (Axon Instruments, CA, USA), and the data analyzed with an Origin 6.1 (Originlab, MA, USA).

KRAS = conditions: PROTAC recruiting CRBN; cited from earlier work

SMILES	ternary complex formation / binding to KRAS G12D (CRBN-KRAS G12D; CRBN + KRAS G12D)	selectivity for KRAS G12D over KRAS WT (CRBN-KRAS G12D; KRAS G12D vs KRAS WT)	effect on degradation of KRAS WT (KRAS WT)	TGI ([1]; 80 mpk BiW, oral, AsPC-1 xenograft mice)	anti-cancer activity ([1]; AsPC-1 xenograft mice)	mean tumor growth vs vehicle ([1]; high dose 80 mpk, oral, twice a week for 28 days)	tumor weight ([1]; oral, twice a week for 28 days)	Maximum degradation (KRAS G12D [2]) [%]	body weight effect ([3]; AsPC-1 xenograft mice, twice a week, 28 days)	decreases in weight and food intake ([3]; oral, twice a week for 28 days, vs vehicle group)	Dmax (KRAS G12D [4]; ASPC1, KRAS G12D degradation, AsPC-1 cells) [%]	DC50 (KRAS G12D [4]; KRAS G12D degradation, AsPC-1 cells) [nM]	degradation of KRAS G12D (KRAS G12D [4]; western blot, AsPC-1 pancreatic cancer cells)	ubiquitination of KRAS G12D (KRAS G12D [5])	poly-ubiquitination and degradation of KRAS (KRAS)
CCOC(=O)[C@H](CCc1ccccc1)N[C@@H](C)C(=O)c1ccccc1 [IPS-06061, ethyl (2S)-2-((1-oxo-1-phenylpropan-2-yl)amino)-4-phenylbutanoate]	binds specifically to KRAS G12D, forming a ternary complex	High selective for KRAS G12D	no effect on the degradation of KRAS WT; also recorded: without affecting KRAS Wild Type	~ 100%	strong anti-cancer activity	remarkably reduced	significantly reduced tumor weight	> 75	No body weight effect	such differences were not noted	> 90	< 500	Time-dependent degradation of KRAS G12D; also recorded: degrades KRAS G12D mutant	promoted the ubiquitination of KRAS G12D in a dose-dependent manner	–
C=C(F)C(=O)N1CCN(c2nc(OC[C@@H]3CCCN3CCCOCCC(=O)N[C@H](C(=O)N3C[C@H](O)C[C@H]3C(=O)NCc3ccc(-c4scnc4C)cc3)C(C)(C)C)nc3c2CCN(c2cccc4cccc(Cl)c24)C3)C[C@@H]1CC#N [LC2]	–	–	–	–	–	–	–	–	–	–	–	–	–	–	poly-ubiquitination of KRAS, thus proteosome-mediated degradation of the protein
